System: cultured cortical neurons at DIV 14
Assay: NMDA excitotoxicity test, neuronal survival by MTT
Type: cell-based, mouse
Details: for neuronal survival: 5 µM inhibitor + 100 µM NMDA + 10 µM glycine; for % of survival, Mean: compound 5µM with NMDA 100µM, MTT A(540 nm) normalized to control (100) and NMDA alone (0)
Text: We first investigated whether OptoNAM-3 could be used in the context of a patho-physiological process related to GluN1/GluN2B receptors. Overactivation of NMDARs induced by tonic exposure to glutamate or NMDA is well-known to trigger neuronal death.[6] GluN1/GluN2B receptors are thought to be the major player of this neurotoxicity, and GluN1/GluN2B antagonists have proven to be potent neuroprotectants in vitro and in vivo.[5],[15] To test the neuroprotective activity of OptoNAM-3 and its photodependence of action, we performed a protocol of excitotoxicity based on exposure to NMDA (100 μM) of cultured cortical neurons at DIV 14,[15] in the presence of OptoNAM-3. […] OptoNAM-3 in the dark, at a concentration of 5 μM, induced, like ifenprodil, an ∼50% increase in cell survival (Figure S4). […] OptoNAM-3 is therefore able to promote cell survival in neuron cultures in a photodependent manner.
Mice were housed in the IBENS rodent central facility duly accredited by the French Ministry of Agriculture. All experiments were performed in compliance with French and European regulations on care and protection of laboratory animals (EU Directive 2010/63, French Law 2013–118, February 6, 2013), and were approved by local ethics committees and by the French Ministry of Research and Innovation (authorization numbers #05137.02, APAFIS #28867-2020121814485893). Dissociated cultures of cortical neurons were prepared from mouse embryos at E18 as described previously.[84] After removing meninges, cortices were placed in ice-cold HBSS solution. Cell dissociation was performed individually for cortices of each embryo. Cortices were incubated in 2.5% trypsin at 37 °C for 7 min, rinsed three times with 37 °C phosphate buffer saline, and finally suspended in plating medium (Neurobasal Medium, supplemented with 0.5 mM L-glutamine, 1% B27 supplement, and penicillin/streptomycin). The neurons were further dissociated by trituration, and cells were plated on poly-D-lysine coated coverslips in 24-well culture dishes at a density of 3 × 10^5 cells per well for the excitotoxicity test and that of 1 × 10^5 cells per well for patch clamp experiments. Cultures were incubated at 37 °C in a humidified atmosphere of 5% CO2. Cells were fed by changing 1/2 medium to fresh Neurobasal medium every 4 days. For the excitotoxicity experiments, after 5 days in vitro, growth of non-neuronal cells was halted by a 24 h exposure to FDX ([…] 5-fluoro-2′-deoxyuridine). The cultures were used for experiments after 6 to 14 days in vitro (DIV6–8 for patch clamp experiments and DIV14 for excitotoxicity tests).
Excitotoxicity tests were performed 14 days after the culturing step as described in ref[15]. Just before the experiments, the neuronal medium was changed and the neurons incubated in the external patch recording solution (see above). Two replicates of 24 well plates containing cultured cortical neurons were exposed to the same 4 conditions, in which the following compounds were added to the medium: (1) glycine (10 μM) alone (control); (2) glycine (10 μM) + NMDA (100 μM); (3) glycine (10 μM) + NMDA (100 μM) + 5 μM ifenprodil; and (4) glycine (10 μM) + NMDA (100 μM) + 5 μM trans-OptoNAM-3 (dark). One of the two plates was exposed to UV light (Jena analytic US, UVP Hand-held UV lamp UVGL-58, power ∼1 mW) for 2 min. The two plates were then put back in the 37 °C incubator for 10 min. Agonist exposure was terminated by washing out the exposure solution with conditioned Neurobasal medium, prior to returning the dishes to the incubator for 24 h before assessment of neuronal death.
Overall neuronal cell death was determined 24 h after NMDA exposure by the MTT test. Mitochondrial and cytosolic dehydrogenases of living cells reduce the yellow tetrazolium salt (MTT) to produce a purple formazan dye that can be detected spectrophotometrically.[85] […]

Q: Which results are given for c1ccc(/N=N/c2ccc(CCNc3ccncc3)cc2)cc1 [OptoNAM-3, (E)-N-(4-(Phenyldiazenyl)phenethyl)pyridin-4-amine]?
A: neuronal survival (2 min UV (365 nm), normalized to control and NMDA): 35%; neuronal survival (dark, normalized to control (100%) and NMDA (0%)): 50%; % of survival, Mean (Dark): 48.677%; % of survival, Mean (UV): 36.192%

— PMC11413854, “Reversible Control of Native GluN2B-Containing NMDA Receptors with Visible Light” (ACS Chemical Neuroscience, 2024)
